Laboratory results published in US20090274577A1, “STE[…] TREATMENT WITH REDUCTANT AND OXIDANT” (priority 2008, published 2009).
Like-named read-outs stand apart in the source and are kept apart here.

Tests used:
[1] = system: Bacillus atrophaeus spores; assay: Filtering test: spores incubated in test solution, filtered, filter half treated with ozone, colonies counted; type: cell-based; conditions: test solution followed by ~350 ppm ozone, 5 or 10 min
Source text: Bacterial spores: Stainless steel discs with Bacillus atrophaeus spores (log 6, cat #1-6100ST, Raven Biological Laboratories).
An ozone generator provided ˜350 ppm O3, and a flow rate of ˜25 l/min, using setting No. 1.
Commercially available sterile single filters (pore size 0.45 μm) and an analytical test filter funnel from Nalgene was used (F-2161, Sigma-Aldrich). For suction, a Rietschle Thomas DTF 6 vacuum pump was used, with a flow rate of ˜6 m3/h, providing a vacuum of ˜150 mbar abs.
Filtering test: In filtering test experiments the spore solutions were prepared in a volume of 1 ml and processed. Thereto, after an incubation period of 5 min in the appropriate buffer at 40° C. using a rotary shaker, an aliquot of 250 μl of the suspension was transferred onto a sterile single use filters. The filter was washed two times with 10 ml of sterile water. The filter was retrieved under sterile conditions, and the filter was cut into halves using a sterile scissor. Only one half of the filter was treated with ozone, while the other half was kept as control, i.e. without ozone treatment. Finally, both halves were placed onto a TSA plate and incubated at 30° C. Initially Nutrient Agar plates were used, but later on a switch was made to TSA plates, in order to utilize the more pronounced reddish colour of Bacillus atrophaeus colonies which was facilitating analysis and documentation. […]

[2] = cited from earlier work

## O=[O+][O-] [ozone]
[1]
  sterilizing/disinfecting/killing effect (in words): increased after 10 min compared to 5 min
[2]; 20 ° C.
  half-life of ozone in gas: approximately 3 days
[2]; 250° C.
  half-life of ozone in gas: 1.5 s
